# Reference: patent US20190010531A1, “CELL CULTURE PROCESS FOR MAKING A GLYCOPROTEIN” (Regeneron Pharmaceuticals, Inc., priority 2017, published 2019)
# Test system: CHO cells expressing a trap protein (receptor-Fc fusion protein, VEGF-trap)
# Conditions: 36.6 mg/L putrescine; VEGF-trap from CHO cells
smiles,measurement,value
"NCCCCN [putrescine, 1,4-Diaminobutane]",Al N-Glycan relative amount (% area under the curve),9.0 % area under the curve
